Data published in the NIST ThermoML archive (doi:10.1016/j.jct.2013.05.014).
Numbers after ± are expanded uncertainties.

How the values were obtained:
[1] = xn = mol fraction of the nth substance listed; settings: 298.15 K, 101 kPa, Liquid; for viscosity: Capillary tube (Ostwald / Ubbelohde) method; for mass density: Pycnometric method
[2] = 298.15 K, 101 kPa, Liquid; for viscosity: Capillary tube (Ostwald / Ubbelohde) method; for mass density: Pycnometric method

CCCCCCCCCC [decane] + CCCCCC(C)O
viscosity ([1]; x1 = 1): 0.845 ± 0.032 mPa·s
mass density ([1]; x1 = 1): 726.35 ± 1 kg/m3

CCCCCCCCCC [decane]
viscosity [2]: 0.845 ± 0.032 mPa·s
mass density [2]: 726.35 ± 1 kg/m3

CCCCCCCCCC [decane] + CCCCC(C)O
viscosity ([1]; x1 = 1): 0.845 ± 0.032 mPa·s
mass density ([1]; x1 = 1): 726.35 ± 1 kg/m3

CCCCC(C)O (centres undefined) [2-hexanol]
viscosity [2]: 4.105 ± 0.085 mPa·s
mass density [2]: 810.84 ± 1 kg/m3

CCCCCC(C)O (centres undefined) [2-heptanol] + CCCCCCCCCC
viscosity ([1]; x2 = 0): 5.08 ± 0.11 mPa·s
viscosity ([1]; x2 = 0.0552): 4.25 ± 0.089 mPa·s
viscosity ([1]; x2 = 0.0999): 3.732 ± 0.078 mPa·s
viscosity ([1]; x2 = 0.1555): 3.152 ± 0.066 mPa·s
viscosity ([1]; x2 = 0.1999): 2.74 ± 0.057 mPa·s
viscosity ([1]; x2 = 0.2554): 2.283 ± 0.048 mPa·s
viscosity ([1]; x2 = 0.2999): 1.962 ± 0.041 mPa·s
viscosity ([1]; x2 = 0.3554): 1.614 ± 0.034 mPa·s
viscosity ([1]; x2 = 0.3998): 1.375 ± 0.033 mPa·s
viscosity ([1]; x2 = 0.4555): 1.122 ± 0.033 mPa·s
viscosity ([1]; x2 = 0.4998): 0.954 ± 0.032 mPa·s
viscosity ([1]; x2 = 0.5555): 0.782 ± 0.032 mPa·s
viscosity ([1]; x2 = 0.5999): 0.673 ± 0.032 mPa·s
viscosity ([1]; x2 = 0.6554): 0.57 ± 0.032 mPa·s
viscosity ([1]; x2 = 0.6999): 0.51 ± 0.032 mPa·s
viscosity ([1]; x2 = 0.7553): 0.461 ± 0.032 mPa·s
viscosity ([1]; x2 = 0.8): 0.44 ± 0.032 mPa·s
viscosity ([1]; x2 = 0.8555): 0.432 ± 0.032 mPa·s
viscosity ([1]; x2 = 0.8998): 0.438 ± 0.032 mPa·s
viscosity ([1]; x2 = 0.9553): 0.457 ± 0.032 mPa·s
mass density ([1]; x2 = 0): 813.74 ± 1 kg/m3
mass density ([1]; x2 = 0.0552): 806.87 ± 1 kg/m3
mass density ([1]; x2 = 0.0999): 801.55 ± 1 kg/m3
mass density ([1]; x2 = 0.1555): 795.15 ± 1 kg/m3
mass density ([1]; x2 = 0.1999): 790.26 ± 1 kg/m3
mass density ([1]; x2 = 0.2554): 784.36 ± 1 kg/m3
mass density ([1]; x2 = 0.2999): 779.83 ± 1 kg/m3
mass density ([1]; x2 = 0.3554): 774.4 ± 1 kg/m3
mass density ([1]; x2 = 0.3998): 770.24 ± 1 kg/m3
mass density ([1]; x2 = 0.4555): 765.23 ± 1 kg/m3
mass density ([1]; x2 = 0.4998): 761.41 ± 1 kg/m3
mass density ([1]; x2 = 0.5555): 756.8 ± 1 kg/m3
mass density ([1]; x2 = 0.5999): 753.27 ± 1 kg/m3
mass density ([1]; x2 = 0.6554): 749.04 ± 1 kg/m3
mass density ([1]; x2 = 0.6999): 745.79 ± 1 kg/m3
mass density ([1]; x2 = 0.7553): 741.87 ± 1 kg/m3
mass density ([1]; x2 = 0.8): 738.84 ± 1 kg/m3
mass density ([1]; x2 = 0.8555): 735.2 ± 1 kg/m3
mass density ([1]; x2 = 0.8998): 732.39 ± 1 kg/m3
mass density ([1]; x2 = 0.9553): 728.98 ± 1 kg/m3

CCCCCCCCCC [decane] + CCCCCCC(C)O
viscosity ([1]; x1 = 1): 0.845 ± 0.032 mPa·s
mass density ([1]; x1 = 1): 726.35 ± 1 kg/m3

CCCCC(C)O (centres undefined) [2-hexanol] + CCCCCCCCCC
viscosity ([1]; x2 = 0): 4.105 ± 0.085 mPa·s
viscosity ([1]; x2 = 0.0555): 3.569 ± 0.074 mPa·s
viscosity ([1]; x2 = 0.0999): 3.17 ± 0.066 mPa·s
viscosity ([1]; x2 = 0.1554): 2.725 ± 0.057 mPa·s
viscosity ([1]; x2 = 0.1998): 2.41 ± 0.05 mPa·s
viscosity ([1]; x2 = 0.2556): 2.062 ± 0.043 mPa·s
viscosity ([1]; x2 = 0.2999): 1.821 ± 0.038 mPa·s
viscosity ([1]; x2 = 0.3555): 1.561 ± 0.033 mPa·s
viscosity ([1]; x2 = 0.3998): 1.384 ± 0.033 mPa·s
viscosity ([1]; x2 = 0.4554): 1.198 ± 0.033 mPa·s
viscosity ([1]; x2 = 0.4998): 1.076 ± 0.032 mPa·s
viscosity ([1]; x2 = 0.5554): 0.952 ± 0.032 mPa·s
viscosity ([1]; x2 = 0.5997): 0.875 ± 0.032 mPa·s
viscosity ([1]; x2 = 0.6555): 0.802 ± 0.032 mPa·s
viscosity ([1]; x2 = 0.6999): 0.76 ± 0.032 mPa·s
viscosity ([1]; x2 = 0.7555): 0.725 ± 0.032 mPa·s
viscosity ([1]; x2 = 0.7998): 0.708 ± 0.032 mPa·s
viscosity ([1]; x2 = 0.8555): 0.699 ± 0.032 mPa·s
viscosity ([1]; x2 = 0.8999): 0.698 ± 0.032 mPa·s
viscosity ([1]; x2 = 0.9555): 0.703 ± 0.032 mPa·s
mass density ([1]; x2 = 0): 810.84 ± 1 kg/m3
mass density ([1]; x2 = 0.0555): 802.94 ± 1 kg/m3
mass density ([1]; x2 = 0.0999): 797.23 ± 1 kg/m3
mass density ([1]; x2 = 0.1554): 790.5 ± 1 kg/m3
mass density ([1]; x2 = 0.1998): 785.43 ± 1 kg/m3
mass density ([1]; x2 = 0.2556): 779.42 ± 1 kg/m3
mass density ([1]; x2 = 0.2999): 774.91 ± 1 kg/m3
mass density ([1]; x2 = 0.3555): 769.55 ± 1 kg/m3
mass density ([1]; x2 = 0.3998): 765.52 ± 1 kg/m3
mass density ([1]; x2 = 0.4554): 760.72 ± 1 kg/m3
mass density ([1]; x2 = 0.4998): 757.1 ± 1 kg/m3
mass density ([1]; x2 = 0.5554): 752.79 ± 1 kg/m3
mass density ([1]; x2 = 0.5997): 749.54 ± 1 kg/m3
mass density ([1]; x2 = 0.6555): 745.66 ± 1 kg/m3
mass density ([1]; x2 = 0.6999): 742.72 ± 1 kg/m3
mass density ([1]; x2 = 0.7555): 739.25 ± 1 kg/m3
mass density ([1]; x2 = 0.7998): 736.62 ± 1 kg/m3
mass density ([1]; x2 = 0.8555): 733.48 ± 1 kg/m3
mass density ([1]; x2 = 0.8999): 731.11 ± 1 kg/m3
mass density ([1]; x2 = 0.9555): 728.29 ± 1 kg/m3

CCCCCC(C)O (centres undefined) [2-heptanol]
viscosity [2]: 5.08 ± 0.11 mPa·s
mass density [2]: 813.74 ± 1 kg/m3

CCCCCCC(C)O (centres undefined) [2-octanol]
viscosity [2]: 6.429 ± 0.13 mPa·s
mass density [2]: 817.05 ± 1 kg/m3

CCCCCCC(C)O (centres undefined) [2-octanol] + CCCCCCCCCC
viscosity ([1]; x2 = 0): 6.429 ± 0.13 mPa·s
viscosity ([1]; x2 = 0.0554): 5.222 ± 0.11 mPa·s
viscosity ([1]; x2 = 0.0998): 4.638 ± 0.096 mPa·s
viscosity ([1]; x2 = 0.1554): 3.972 ± 0.082 mPa·s
viscosity ([1]; x2 = 0.1999): 3.491 ± 0.072 mPa·s
viscosity ([1]; x2 = 0.2554): 2.951 ± 0.061 mPa·s
viscosity ([1]; x2 = 0.2999): 2.564 ± 0.053 mPa·s
viscosity ([1]; x2 = 0.3555): 2.136 ± 0.044 mPa·s
viscosity ([1]; x2 = 0.3998): 1.836 ± 0.038 mPa·s
viscosity ([1]; x2 = 0.4554): 1.509 ± 0.033 mPa·s
viscosity ([1]; x2 = 0.4999): 1.284 ± 0.033 mPa·s
viscosity ([1]; x2 = 0.5555): 1.046 ± 0.032 mPa·s
viscosity ([1]; x2 = 0.5998): 0.889 ± 0.032 mPa·s
viscosity ([1]; x2 = 0.6555): 0.73 ± 0.032 mPa·s
viscosity ([1]; x2 = 0.7): 0.63 ± 0.032 mPa·s
viscosity ([1]; x2 = 0.7554): 0.538 ± 0.032 mPa·s
viscosity ([1]; x2 = 0.7998): 0.487 ± 0.032 mPa·s
viscosity ([1]; x2 = 0.8554): 0.45 ± 0.032 mPa·s
viscosity ([1]; x2 = 0.8999): 0.438 ± 0.032 mPa·s
viscosity ([1]; x2 = 0.9554): 0.445 ± 0.032 mPa·s
mass density ([1]; x2 = 0): 817.05 ± 1 kg/m3
mass density ([1]; x2 = 0.0554): 810.77 ± 1 kg/m3
mass density ([1]; x2 = 0.0998): 805.83 ± 1 kg/m3
mass density ([1]; x2 = 0.1554): 799.74 ± 1 kg/m3
mass density ([1]; x2 = 0.1999): 794.99 ± 1 kg/m3
mass density ([1]; x2 = 0.2554): 789.2 ± 1 kg/m3
mass density ([1]; x2 = 0.2999): 784.67 ± 1 kg/m3
mass density ([1]; x2 = 0.3555): 779.16 ± 1 kg/m3
mass density ([1]; x2 = 0.3998): 774.9 ± 1 kg/m3
mass density ([1]; x2 = 0.4554): 769.69 ± 1 kg/m3
mass density ([1]; x2 = 0.4999): 765.64 ± 1 kg/m3
mass density ([1]; x2 = 0.5555): 760.74 ± 1 kg/m3
mass density ([1]; x2 = 0.5998): 756.94 ± 1 kg/m3
mass density ([1]; x2 = 0.6555): 752.3 ± 1 kg/m3
mass density ([1]; x2 = 0.7): 748.7 ± 1 kg/m3
mass density ([1]; x2 = 0.7554): 744.32 ± 1 kg/m3
mass density ([1]; x2 = 0.7998): 740.91 ± 1 kg/m3
mass density ([1]; x2 = 0.8554): 736.74 ± 1 kg/m3
mass density ([1]; x2 = 0.8999): 733.47 ± 1 kg/m3
mass density ([1]; x2 = 0.9554): 729.48 ± 1 kg/m3
